# Reference: US12491182B2, “Polymorphs of triazole antifungal compound PC945” (Pulmocide Limited, priority 2019, dated 2025)
# Where two headings read alike, the source gives them in different places. Marks after values point to notes of the source that are not given here.
# What was measured:
# [1] = Equilibration of Forms 1 and 2, singularly and as mixtures, in MEK and THF alone and with 5% water; format: physicochemical; conditions: 5-10 °C, both equilibration temperatures
# From the text: The influence of the initial polymorphic composition on the fate of samples was investigated by equilibration of the either the single polymorphs or an equal mixture of both in anhydrous MEK and THF as well as in the same solvents doped with 5% water.
# The results obtained (Table 13) reveal that in anhydrous media the two polymorphs retain their structural integrity, if present singularly (Table 13, Entries 1, 2, 4 and 5). […] (Table 13, Entry 4) which may be attributable to the presence of traces of moisture in a highly hygroscopic solvent.
# The results observed when 5% water was admixed to the two solvents indicate that the predominance of the two forms reversed under these conditions, taking kinetic factors into account. In aqueous MEK (5% water) the single polymorphs were again unchanged for the duration of the experiment (Table 13, Entries 7 and 8). In contrast, the binary polymorphic mixture converted into Form 1 in this medium (Table 13, Entry 9). In aqueous THF (5% water) the dominance of Form 1 as the most preferred polymorph was especially evident. In this environment the suspension of Form 1 remained unchanged (Table 13, Entry 10), consistent with the outcome observed for aq MEK under the same conditions.
# However, in THF doped with 5% water, both the suspension comprising the binary mixture, as well as that composed of the Form 2 polymorph alone, were transformed into suspensions containing only Form 1 (Table 13, Entries 11 and 12).
# [2] = Solubility of Compound I in MEK/water mixtures; format: physicochemical; conditions: 25 °C, organic solvent or mixture, thermodynamic from solid
# Method: (Table 12). It was observed that Form 2 integrity was maintained for at least 24 hours at the lower temperature until the water content exceeded 6%, despite an increase in solubility of Compound I from 19 to 30 mg/ml (data not shown).
# Aspergillus fumigatus [3] = conditions: topical Compound I in combination with a known systemic triazole agent; lungs of neutropenic, immunocompromised mice; cited from earlier work
# [4] = Solubility of Compound I in water; format: physicochemical
# [5] = target: T1, Aspergillus fumigatus sterol 14α-demethylase CYP51A (Aspergillus fumigatus, UniProt Q4WNT5); conditions: cited from earlier work
# T1 sequence (Q4WNT5 1-515): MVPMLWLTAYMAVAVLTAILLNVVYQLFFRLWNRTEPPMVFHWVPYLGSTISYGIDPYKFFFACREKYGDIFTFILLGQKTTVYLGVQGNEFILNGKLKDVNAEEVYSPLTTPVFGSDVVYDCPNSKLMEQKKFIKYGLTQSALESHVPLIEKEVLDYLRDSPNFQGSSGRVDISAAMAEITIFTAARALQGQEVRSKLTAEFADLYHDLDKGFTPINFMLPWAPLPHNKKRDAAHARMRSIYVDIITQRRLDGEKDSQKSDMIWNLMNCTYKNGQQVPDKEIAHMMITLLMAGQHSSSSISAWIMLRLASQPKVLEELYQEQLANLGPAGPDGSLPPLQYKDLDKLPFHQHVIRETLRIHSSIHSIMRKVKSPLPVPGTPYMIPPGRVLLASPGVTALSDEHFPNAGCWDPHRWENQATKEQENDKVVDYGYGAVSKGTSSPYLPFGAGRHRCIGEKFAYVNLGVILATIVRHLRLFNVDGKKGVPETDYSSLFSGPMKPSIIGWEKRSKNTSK
# Aspergillus fumigatus [6] = conditions: topical Compound I in combination with a known systemic triazole agent; in vitro human alveolus bilayer model; cited from earlier work
# Candida auris isolates = conditions: isolates collected globally; cited from earlier work
# Aspergillus fumigatus [7] = conditions: intranasal dosing, immunocompromised mice, repeat dosing; cited from earlier work
# [8] = target: T2, Aspergillus fumigatus sterol 14α-demethylase CYP51B (Aspergillus fumigatus, UniProt E9QY26); conditions: cited from earlier work
# T2 sequence (E9QY26 1-524): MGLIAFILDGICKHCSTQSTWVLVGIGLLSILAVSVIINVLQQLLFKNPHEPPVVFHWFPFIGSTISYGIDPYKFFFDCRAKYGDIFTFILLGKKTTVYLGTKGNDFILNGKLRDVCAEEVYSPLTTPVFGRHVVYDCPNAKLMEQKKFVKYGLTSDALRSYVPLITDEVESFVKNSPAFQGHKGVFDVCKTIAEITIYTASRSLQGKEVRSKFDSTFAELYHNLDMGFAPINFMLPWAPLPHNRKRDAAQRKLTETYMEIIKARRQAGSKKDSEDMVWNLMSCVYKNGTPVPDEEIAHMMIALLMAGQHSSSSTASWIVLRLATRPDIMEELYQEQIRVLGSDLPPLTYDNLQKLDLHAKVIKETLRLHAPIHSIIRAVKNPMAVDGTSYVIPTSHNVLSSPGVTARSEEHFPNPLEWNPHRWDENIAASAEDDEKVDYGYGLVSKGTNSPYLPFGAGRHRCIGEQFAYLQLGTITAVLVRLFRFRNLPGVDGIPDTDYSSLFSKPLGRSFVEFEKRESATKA
# [9] = Cross-seeding experiments of Forms 1 and 2 at 5, 25 and 50 °C, XRPD; format: physicochemical; conditions: 96 hr
# From the text: (§1) X-Ray powder diffraction patterns were collected on a PANalytical diffractometer using Cu Kα radiation (45 kV, 40 mA), θ-θ goniometer, focusing mirror, divergence slit (½″), soller slits at both incident and divergent beam (4 mm) and a PIXcel detector. The software used for data collection was X′Pert Data Collector, version 2.2f and the data was presented using X′Pert Data Viewer, version 1.2d. XRPD patterns were acquired under ambient conditions via a transmission foil sample stage (polyimide—Kapton, 12.7 μm thickness film) under ambient conditions using a PANalytical X′Pert PRO. The data collection range was 2.994-35°2θ with a continuous scan speed of 0.202 s^−1.
# A mixture of Forms 1 and 2 (50% w/w) was prepared and a sample of the mixture (20 mg) was then suspended in a solvent system (50 vol, 1.0 mL) and shaken at different temperatures for 96 hr. The solids were filtered, air dried and analysed by XRPD. The results obtained (Table 8) reveal that, in all but one of the systems investigated (Entries 10-12), the mixture of polymorphic forms had turned over into Form 2 when maintained at both RT and 50° C. The transformation in propyl acetate was seen to be especially facile as Form 2 was also isolated from the suspension which had been maintained at 5° C. (Entry 1).
# [10] = Maturation of 1:1 suspensions of Forms 1 and 2 at varying temperatures, XRPD analysis; format: physicochemical
# From the text: It has been determined that the crystalline states, referred to herein as Form 1 and Form 2, constitute an enantiotropic polymorphic pair. This property arises from a temperature dependency of their relative thermodynamic stabilities, whereby one of the polymorphs is the most thermodynamically stable manifestation of the material up to a characteristic (empirically determined) temperature; above which their order of stability is inverted. In the present instance suspensions comprising equal amounts of the two polymorphs were matured, in one of six different solvents, at 50° C., 70° C. and 135° C. (Table 6). In all experiments conducted at both 50° C. and 70° C. the 1:1 mixtures converted into suspensions containing only the Form 2 polymorph. In contrast, all of the mixtures maintained at a temperature of 135° C. were transformed into Form 1.
# as §1
# A mixture of equal amounts Forms 1 and 2 (100 mg) was charged to crystallisation tubes followed by the selected solvent. The suspensions were heated to the temperatures indicated (Table 6) for 72 hr, during which time samples were taken at 24 hr intervals Solids were isolated at the maturation temperature by filtration and then dried in vacuo at 45° C. for 20 hr. In two cases (Table 6, Entries 1 and 2) suspensions were retained at 135° C. which comprised Form I from the 24 hr time point to the conclusion of the experiment. In the remaining cases (Table 6, Entries 4-6) solutions had formed at 72 hr and solids were recovered by slight cooling, all of which were determined to be Form 1. Those maturated at lower temperatures all gave Form 2 within 24 hr.
smiles,measurement,setting,value
"[2H]c1c([2H])c(NC(=O)c2ccc(N3CCN(c4ccc(OC[C@@H]5CO[C@@](Cn6cncn6)(c6ccc(F)cc6F)C5)c(C)c4)CC3)cc2)c([2H])c([2H])c1F [Compound 2, 4-(4-(4-(((3R,5R)-5-((1H-1,2,4-triazol-1-yl)methyl)-5-(2,4-difluorophenyl)tetrahydrofuran-3-yl)methoxy)-3-methylphenyl)piperazin-1-yl)-N-(4-fluorophenyl-2,3,5,6-d4)benzamide, reference compound]",Form by XRPD Post Equilibration,[1]; MEK (anhydrous),2
same,Form by XRPD Post Equilibration,[1]; MEK/5% Water,2
same,Form by XRPD Post Equilibration,"[1]; THF (anhydrous), Form 1 input: some evidence of Form 2 at 10 °C",2
same,Form by XRPD Post Equilibration,[1]; THF/5% Water,1
"Cc1cc(N2CCN(c3ccc(C(=O)Nc4ccc(F)cc4)cc3)CC2)ccc1OC[C@@H]1CO[C@@](Cn2cncn2)(c2ccc(F)cc2F)C1 [Compound I, 4-(4-(4-(((3R,5R)-5-((1H-1,2,4-triazol-1-yl)methyl)-5-(2,4-difluorophenyl)tetrahydrofuran-3-yl)methoxy)-3-methylphenyl)piperazin-1-yl)-N-(4-fluorophenyl)benzamide]",solubility,[2]; MEK with 8% water by volume,23 mg/mL
same,solubility,"[2]; MEK with water content rising up to 6% by volume, 25 °C (data not shown)",19 to 30 mg/mL
same,anti-fungal effect of combination,Aspergillus fumigatus [3],synergistic anti-fungal effects
same,solubility in water,[4],extremely low solubility
same,inhibition of sterol 14α-demethylase CYP51A,[5],potent inhibitor
same,anti-fungal effect of combination,Aspergillus fumigatus [6],synergistic anti-fungal effects
same,"inhibition of Candida auris isolates, potency compared with azoles",Candida auris isolates,"more potent inhibitor than posaconazole, voriconazole and fluconazole"
same,anti-fungal effects by biomarker analysis,Aspergillus fumigatus [7],accumulated upon repeat dosing and were persistent
same,inhibition of sterol 14α-demethylase CYP51B,[8],potent inhibitor
Cc1cc(N2CCN(c3ccc(C(=O)Nc4ccc(F)cc4)cc3)CC2)ccc1OC[C@@H]1CO[C@@](Cn2cncn2)(c2ccc(F)cc2F)C1 [Forms 1 and 2],Form by XRPD Post Equilibration,"[1]; MEK (anhydrous), listed as 1 + 2",2
same,Form by XRPD Post Equilibration,[1]; MEK/5% Water,1
same,Form by XRPD Post Equilibration,"[1]; THF (anhydrous), Form 1 input: some evidence of Form 2 at 10 °C, listed as 1 + 2",2
same,Form by XRPD Post Equilibration,[1]; THF/5% Water,1
same,Polymorphic Form by XRPD,"[9]; PrOAc, 5 °C",2
same,Polymorphic Form by XRPD,"[9]; PrOAc, 25 °C",2
same,Polymorphic Form by XRPD,"[9]; PrOAc, 50 °C",2
same,Polymorphic Form by XRPD,"[9]; TBME, 25 °C",2
same,Polymorphic Form by XRPD,"[9]; TBME, 50 °C",2
same,Polymorphic Form by XRPD,"[9]; Toluene, 25 °C",2
same,Polymorphic Form by XRPD,"[9]; Toluene, 50 °C",2
same,Polymorph obtained at temp indicated,"[10]; decalin, 50 °C, XRPD after 72 hr",2
same,Polymorph obtained at temp indicated,"[10]; decalin, 70 °C, XRPD after 72 hr",2
same,Polymorph obtained at temp indicated,"[10]; decalin, 135 °C, 72 hr, dissolution occurred, solid obtained on slight cooling",1^b
same,Polymorph obtained at temp indicated,"[10]; diphenyl ether, 50 °C, XRPD after 72 hr",2
same,Polymorph obtained at temp indicated,"[10]; diphenyl ether, 70 °C, XRPD after 72 hr",2
same,Polymorph obtained at temp indicated,"[10]; diphenyl ether, 135 °C, 72 hr, dissolution occurred, solid obtained on slight cooling",1^b
same,enantiotropic transition point (temperature at which stability inverts),"[10]; from maturation of 1:1 mixtures at 50, 70 and 135 °C",70-135 °C
same,Polymorph obtained at temp indicated,"[10]; heptanol, 50 °C, XRPD after 72 hr",2
same,Polymorph obtained at temp indicated,"[10]; heptanol, 70 °C, XRPD after 72 hr",2
same,Polymorph obtained at temp indicated,"[10]; heptanol, 135 °C, 72 hr, dissolution occurred, solid obtained on slight cooling",1^b
same,Polymorph obtained at temp indicated,"[10]; mesitylene, 50 °C, XRPD after 72 hr",2
same,Polymorph obtained at temp indicated,"[10]; mesitylene, 70 °C, XRPD after 72 hr",2
same,Polymorph obtained at temp indicated,"[10]; mesitylene, 135 °C, XRPD after 72 hr",1
same,Polymorph obtained at temp indicated,"[10]; p-cymene, 50 °C, XRPD after 72 hr",2
same,Polymorph obtained at temp indicated,"[10]; p-cymene, 70 °C, XRPD after 72 hr",2
same,Polymorph obtained at temp indicated,"[10]; p-cymene, 135 °C, 72 hr, dissolution occurred, solid obtained on slight cooling",1^b
same,Polymorph obtained at temp indicated,"[10]; xylenes, 50 °C, XRPD after 72 hr",2
same,Polymorph obtained at temp indicated,"[10]; xylenes, 70 °C, XRPD after 72 hr",2
same,Polymorph obtained at temp indicated,"[10]; xylenes, 135 °C, XRPD after 72 hr",1
